Where two headings read alike, the source gives them in different places.
Key:
Assay type in all cases: in vivo
Mahanarva fimbriolata = experiment: Field trial, % control of Mahanarva fimbriolata nymphs and adult insects in sugarcane
Experimental: Trials were carried out in field to assess efficacy of flupyrimin against Mahanarva fimbriolata. Evaluation was done to check % control of nymphs and adult insects at intervals of 30 DAA and 60 DAA (for nymphs) and 7, 30 and 60 DAA (for adult insects). The efficacy was compared with standard insecticides thiamethoxam and ethiprole.

[1] = tested on: resistant Mahanarva fimbriolata; experiment: Greenhouse pot trial, drench, mortality of resistant nymphs; conditions: for mortality at 400 g/ha / mortality at 250 g/ha: Mahanarva fimbriolata, soil; for mortality at 400 g/ha: read-out: Mortality (%) of Nymphs-Resistant population % Mortality, 400 g.a.i/ha; for mortality at 250 g/ha: read-out: Mortality (%) of Nymphs-Resistant population % Mortality, 250 g.a.i/ha
Experimental: The sugarcane plants were sown under greenhouse in pots. Artificially, each pot was infested with 10 nymphs in 3rd/4th instar. Infestation was done 24 h before of application for insect acclimatization. The treatments were applied via drenching, after infestation. The assessments were made at 3 and 5 days after infestation in 4 replications.

adult Sphenophorus levis = experiment: Control efficacy against adults, plots sprayed
Experimental: The efficacy of flupyrimin was determined against adult and the larvae stage of Sphenophorus levis. To evaluate the efficacy of flupyrimin plots with ten Sphenophorus levis adults were populated. Flupyrimin at a concentration of 500 g/L was used to treat the plots by spraying. Each plot received a 10 cm splitted lengthwise suarcane stem piece as feed and accordingly each plot was subjected to treatment conditions as depicted in the table below.

[2] = tested on: larvae Sphenophorus levis; experiment: Larvae bioassay, residual contact and ingestion, dipped sugarcane stalks; conditions: for Larvae efficacy control (%): 1DAA
Experimental: The efficacy of flupyrimin was determined against the larvae stage of Sphenophorus levis. Accordingly, the larvae bioassay method was residual contact and ingestion. The sugarcane stalks were dipped in a insecticide solution then placed on a papart towel to dry. The sugarcane stalks were placed in glass tubes, then S. levis first stage and last instar lavae were introduced in each tube separately. The mortality achieved was 100% at 1 DAA. The treatments condidtions and the results are depicted in Table 8 below: […]

For `O=C(N=c1ccccn1Cc1ccc(Cl)nc1)C(F)(F)F` [Flupyrimin, flupyrimin], the “Adults % Control” value (Mahanarva fimbriolata; 150 g a.i./ha, 7 DAA) was 80%, the “Adults % Control” value (Mahanarva fimbriolata; 150 g a.i./ha, 30 DAA) was 100% and the “Nymphs % Control” value (Mahanarva fimbriolata; 150 g a.i./ha, 30 DAA) was 62%. For the same compound, the “Adults % Control” value (Mahanarva fimbriolata; 150 g a.i./ha, 60 DAA) was 75%, the “Nymphs % Control” value (Mahanarva fimbriolata; 150 g a.i./ha, 60 DAA) was 95% and the “Adults % Control” value (Mahanarva fimbriolata; 200 g a.i./ha, 7 DAA) was 80%. For the same compound, the “Adults % Control” value (Mahanarva fimbriolata; 200 g a.i./ha, 30 DAA) was 50%, the “Nymphs % Control” value (Mahanarva fimbriolata; 200 g a.i./ha, 30 DAA) was 97% and the “Adults % Control” value (Mahanarva fimbriolata; 200 g a.i./ha, 60 DAA) was 100%. The “Nymphs % Control” value (Mahanarva fimbriolata; 200 g a.i./ha, 60 DAA) was 95%, the “Adults % Control” value (Mahanarva fimbriolata; 250 g a.i./ha, 7 DAA) was 60% and the “Adults % Control” value (Mahanarva fimbriolata; 250 g a.i./ha, 30 DAA) was 100%. The “Nymphs % Control” value (Mahanarva fimbriolata; 250 g a.i./ha, 30 DAA) was 92%, the “Adults % Control” value (Mahanarva fimbriolata; 250 g a.i./ha, 60 DAA) was 50% and the “Nymphs % Control” value (Mahanarva fimbriolata; 250 g a.i./ha, 60 DAA) was 100%. The “Nymphs % Control” value (Mahanarva fimbriolata; 250 g a.i./ha, 60 DAA, listed as flupyrimin) was “complete control”, the “Adults % Control” value (Mahanarva fimbriolata; 300 g a.i./ha, 7 DAA) was 40% and the “Adults % Control” value (Mahanarva fimbriolata; 300 g a.i./ha, 30 DAA) was 25%. The “Nymphs % Control” value (Mahanarva fimbriolata; 300 g a.i./ha, 30 DAA) was 81%, the “Adults % Control” value (Mahanarva fimbriolata; 300 g a.i./ha, 60 DAA) was 100% and the “Nymphs % Control” value (Mahanarva fimbriolata; 300 g a.i./ha, 60 DAA) was 95%. The “Mortality (%) of Nymphs-Resistant population % Mortality” value (“Mortality (%)” below) ([1]; 150 g.a.i/ha, 0 DAA 3 DAI) was 85%, the “Mortality (%)” value ([1]; 150 g.a.i/ha, 0 DAA 5 DAI) was 98% and the “Mortality (%)” value ([1]; 200 g.a.i/ha, 0 DAA 3 DAI) was 97%. For the same compound, the “Mortality (%)” value ([1]; 200 g.a.i/ha, 0 DAA 5 DAI) was 100%, the “Mortality (%)” value ([1]; 250 g.a.i/ha, 0 DAA 3 DAI) was 98% and the “Mortality (%)” value ([1]; 250 g.a.i/ha, 0 DAA 5 DAI) was 98%. The “Mortality (%)” value ([1]; 300 g.a.i/ha, 0 DAA 3 DAI) was 97%, the “Mortality (%)” value ([1]; 300 g.a.i/ha, 0 DAA 5 DAI) was 100% and the “control of resistant nymphs (in words)” value ([1]; summary of the table, no dose stated) was “effective in completely controlling resistant nymphs”. For the same compound, the “control of S. levis adults (in words)” value (adult Sphenophorus levis; 9 DAA, no dose stated) was “almost complete control”, the “Adults efficacy control (%)” value (adult Sphenophorus levis; 150 g of a.i/ha (0.30 kg-l/ha), 1DAA) was 46.3% and the “Adults efficacy control (%)” value (adult Sphenophorus levis; 150 g of a.i/ha (0.30 kg-l/ha), second value column, time not printed) was 75.1%. For the same compound, the “Adults efficacy control (%)” value (adult Sphenophorus levis; 150 g of a.i/ha (0.30 kg-l/ha), third value column, time not printed) was 97.3%, the “Adults efficacy control (%)” value (adult Sphenophorus levis; 250 g of a.i/ha (0.50 kg-l/ha), 1DAA) was 61.0% and the “Adults efficacy control (%)” value (adult Sphenophorus levis; 250 g of a.i/ha (0.50 kg-l/ha), second value column, time not printed) was 80.9%. The “Adults efficacy control (%)” value (adult Sphenophorus levis; 250 g of a.i/ha (0.50 kg-l/ha), third value column, time not printed) was 100%, the “Adults efficacy control (%)” value (adult Sphenophorus levis; 300 g of a.i/ha (0.60 kg-l/ha), 1DAA) was 59.5% and the “Adults efficacy control (%)” value (adult Sphenophorus levis; 300 g of a.i/ha (0.60 kg-l/ha), second value column, time not printed) was 79.5%. The “Adults efficacy control (%)” value (adult Sphenophorus levis; 300 g of a.i/ha (0.60 kg-l/ha), third value column, time not printed) was 99.1%, the “Adults efficacy control (%)” value (adult Sphenophorus levis; 500 g of a.i/ha (1.00 kg-l/ha), 1DAA) was 56.9% and the “Adults efficacy control (%)” value (adult Sphenophorus levis; 500 g of a.i/ha (1.00 kg-l/ha), second value column, time not printed) was 79.9%. For the same compound, the “Adults efficacy control (%)” value (adult Sphenophorus levis; 500 g of a.i/ha (1.00 kg-l/ha), third value column, time not printed) was 97.3%, the “Larvae efficacy control (%)” value ([2]; 150 g of a.i/ha (0.30 kg-l/ha)) was 100% and the “Larvae efficacy control (%)” value ([2]; 250 g of a.i/ha (0.50 kg-l/ha)) was 100%. The “Larvae efficacy control (%)” value ([2]; 300 g of a.i/ha (0.60 kg-l/ha)) was 100%, the “Larvae efficacy control (%)” value ([2]; 500 g of a.i/ha (1.00 kg-l/ha)) was 100% and the “mortality of S. levis larvae” value ([2]; first stage and last instar larvae, 1 DAA, no dose stated) was 100%.

In the case of `CC[S+]([O-])c1c(C#N)nn(-c2c(Cl)cc(C(F)(F)F)cc2Cl)c1N` (centres unmarked) [Ethiprole, ethiprole], the “Adults % Control” value (Mahanarva fimbriolata; 400 g a.i./ha, 7 DAA) is reported as 100%, the “Adults % Control” value (Mahanarva fimbriolata; 400 g a.i./ha, 30 DAA) is reported as 100% and the “Nymphs % Control” value (Mahanarva fimbriolata; 400 g a.i./ha, 30 DAA) is reported as 95%. For the same compound, the “Adults % Control” value (Mahanarva fimbriolata; 400 g a.i./ha, 60 DAA) was 100%, the “Nymphs % Control” value (Mahanarva fimbriolata; 400 g a.i./ha, 60 DAA) was 100% and the mortality at 400 g/ha ([1]; 0 DAA 3 DAI) was 33%. It also gave a mortality at 400 g/ha ([1]; 0 DAA 5 DAI) of 45%.

For `CN1COCN(Cc2cnc(Cl)s2)/C1=N\[N+](=O)[O-]` [Thiamethoxam, thiamethoxam], the “Adults % Control” value (Mahanarva fimbriolata; 250 g a.i./ha, 7 DAA) was 60%, the “Adults % Control” value (Mahanarva fimbriolata; 250 g a.i./ha, 30 DAA) was 50% and the “Nymphs % Control” value (Mahanarva fimbriolata; 250 g a.i./ha, 30 DAA) was 86%. The “Adults % Control” value (Mahanarva fimbriolata; 250 g a.i./ha, 60 DAA) was 75%, the “Nymphs % Control” value (Mahanarva fimbriolata; 250 g a.i./ha, 60 DAA) was 90% and the mortality at 250 g/ha ([1]; 0 DAA 3 DAI) was 23%. It also gave a mortality at 250 g/ha ([1]; 0 DAA 5 DAI) of 25%.
